We go through four molecules from US20260115144A1, “THERAPEUTIC NANOPARTICLES ENCAPSULATING TERPENOIDS AND/OR CANNABINOIDS” (priority 2018, published 2026).

Each structure is given as a SMILES string.

A short description of series [1]: Loss of myrcene during lyophilization for 24 h (weighing). The format is physicochemical. Conditions: lyophilized for 24 h; starting weight 8 or 48 mg. Here is the method:
To investigate whether myrcene is lost during lyophilization, 3 samples of either free myrcene, a mixture of myrcene and water, or a mixture of myrcene, water and PLGA were prepared in duplicate as illustrated in Table 16. Samples were lyophilized for 24 h. The vials containing the samples were weighed before and after lyophilization to calculate the weight of the dried sample.

The target in the next series is T1, TRPV1 receptors (Rattus norvegicus, UniProt O35433).
T1 construct: expressed in transfected cells; host or cells: HEK TRPV1 cells (Helen Turner lab, Chaminade University of Honolulu), kept under geneticin
T1 sequence (O35433 whole entry): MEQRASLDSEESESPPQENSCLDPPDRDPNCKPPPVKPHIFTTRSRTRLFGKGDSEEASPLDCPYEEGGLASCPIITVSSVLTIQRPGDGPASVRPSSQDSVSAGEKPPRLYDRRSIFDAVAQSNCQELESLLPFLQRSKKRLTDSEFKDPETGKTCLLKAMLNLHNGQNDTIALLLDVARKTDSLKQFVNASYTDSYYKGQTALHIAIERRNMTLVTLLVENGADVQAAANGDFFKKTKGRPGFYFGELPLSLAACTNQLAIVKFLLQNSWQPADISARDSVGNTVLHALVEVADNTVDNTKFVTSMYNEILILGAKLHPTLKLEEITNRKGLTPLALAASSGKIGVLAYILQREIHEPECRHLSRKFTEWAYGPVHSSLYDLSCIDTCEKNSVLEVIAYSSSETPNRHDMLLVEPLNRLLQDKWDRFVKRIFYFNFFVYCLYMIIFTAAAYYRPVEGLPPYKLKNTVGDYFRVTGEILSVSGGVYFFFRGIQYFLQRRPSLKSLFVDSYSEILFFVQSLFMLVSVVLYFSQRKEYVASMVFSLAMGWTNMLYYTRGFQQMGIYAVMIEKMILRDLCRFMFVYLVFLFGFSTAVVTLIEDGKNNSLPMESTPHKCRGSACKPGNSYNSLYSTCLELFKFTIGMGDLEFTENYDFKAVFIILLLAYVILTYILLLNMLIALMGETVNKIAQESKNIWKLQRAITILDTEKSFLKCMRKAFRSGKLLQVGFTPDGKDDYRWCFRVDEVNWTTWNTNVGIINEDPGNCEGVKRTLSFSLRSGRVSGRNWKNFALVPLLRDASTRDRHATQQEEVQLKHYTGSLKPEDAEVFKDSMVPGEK
As to the kind of experiment: Calcium signaling assay (Fluo-4) in HEK TRPV1 cells. The format is cell-based. Conditions: 40 μg/ml, 1 h.

The next series deals with TRPV1 (Homo sapiens, UniProt Q8NER1). Conditions: described in PCT/US2018/033956; cited from earlier work.
Chain of TRPV1 (Q8NER1 whole entry, species assumed): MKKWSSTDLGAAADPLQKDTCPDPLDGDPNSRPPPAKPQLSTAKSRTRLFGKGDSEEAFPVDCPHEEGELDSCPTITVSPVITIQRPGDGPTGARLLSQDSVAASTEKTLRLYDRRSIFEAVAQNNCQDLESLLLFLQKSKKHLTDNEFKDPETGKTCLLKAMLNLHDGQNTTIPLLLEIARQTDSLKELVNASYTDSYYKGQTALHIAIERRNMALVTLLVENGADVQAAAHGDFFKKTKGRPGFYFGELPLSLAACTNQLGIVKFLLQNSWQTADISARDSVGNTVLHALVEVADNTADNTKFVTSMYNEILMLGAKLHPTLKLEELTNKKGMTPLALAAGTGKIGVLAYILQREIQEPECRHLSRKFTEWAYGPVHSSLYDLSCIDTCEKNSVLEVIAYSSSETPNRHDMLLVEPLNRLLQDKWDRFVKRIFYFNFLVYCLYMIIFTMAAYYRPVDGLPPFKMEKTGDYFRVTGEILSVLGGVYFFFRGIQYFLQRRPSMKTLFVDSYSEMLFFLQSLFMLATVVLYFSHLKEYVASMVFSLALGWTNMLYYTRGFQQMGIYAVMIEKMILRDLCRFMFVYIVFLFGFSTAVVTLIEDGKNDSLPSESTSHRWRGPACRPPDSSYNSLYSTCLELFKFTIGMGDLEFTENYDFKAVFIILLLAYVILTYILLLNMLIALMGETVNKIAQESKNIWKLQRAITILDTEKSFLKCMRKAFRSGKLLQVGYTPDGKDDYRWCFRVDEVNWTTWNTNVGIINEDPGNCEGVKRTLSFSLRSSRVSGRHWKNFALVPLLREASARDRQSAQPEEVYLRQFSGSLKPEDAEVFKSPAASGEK
The conditions of series [2]: cited from earlier work.

Description for TRPV1 receptors: HEK TRPV1 cells were provided by the Helen Turner lab at Chaminade University of Honolulu and maintained in MEM essential medium supplemented with 10% FBS, 50 units/ml-50 μg/ml Penicillin-Streptomycin, and 0.6 mg/ml geneticin.
HEK TRPV1 cells were harvested with trypsin, deactivated with media, and counted. Cells were centrifuged at 1000 rpm, for 5 min, at room temperature. Cells were washed twice with 1 mM Ca Assay Buffer (Na Ringers [140 mM NaCl, 2.8 mM KCl, 2 mM MgCl2, 11 mM glucose, 10 mM HEPES], 2 mM Probenecid, 1 mM CaCl2); pH 7.4), and collected by centrifugation at 1000 rpm, for 5 min, at room temperature. Cells were resuspended in 1 μM Fluo-4 (1 μl of 5 mM Fluo-4, mixed with 1 μl of 20% Pluronic F-127 in DMSO, then 5 ml of 1 mM Ca Assay Buffer was added and the mixture incubated at 37° C. for 10 min in the dark), and incubated for 30 min at 37° C. in the dark. Cells were then washed twice with 1 mM Ca assay buffer, then resuspended in the assay buffer and pipetted to opaque-walled 96-well plates at a density of 150,000 cells/180 μl/well. Fluorescence was measured using a plate reader (Synergy HTX, BioTek, USA), at an excitation wavelength of 485 nm and an emission wavelength of 528 nm. Once a baseline was established (3 measurements), 20 μl of the stimulant (free terpenoids, terpenoids-loaded NPs, and controls) solution was added to each well and measurement was continued for 1 h with one read every 40 seconds.
All solutions were prepared in 1 mM Ca Assay Buffer. Free terpenoids were first dissolved in DMSO, then a specific volume was diluted with the assay buffer to produce the required concentration. […]
A calcium signaling assay was utilized to evaluate the ion influx into HEK TRPV1 cells. Cells were dispersed in 1 mM calcium assay buffer and the intracellular calcium levels were measured using a plate reader in the presence of Fluo-4, as the fluorophore. […] Fluorescence changes in response to the free terpenoids, encapsulated terpenoids, and combinations of free and encapsulated terpenoids were detected and compared.

In series [1], `C=CC(=C)CCC=C(C)C` [Formula F42] had a Weight after lyophilization of 0.88 mg. With `C=CC(=C)CCC=C(C)C` [myrcene, 7-methyl-3-methylideneocta-1,6-diene], on TRPV1 receptors, the “Calcium response (fluorescence change), non-encapsulated individual terpenoids” value is given as “most intense response”. The TRPV1 agonist activity entry at TRPV1 is “TRPV1 agonist that causes TRPV1 desensitization after prolonged exposure”. Besides, in series [2] (at 25° C.), the Vapor pressure was 2.09 mm Hg. Also, the Solubility in water entry in series [2] is reported as “not soluble in water”. For the molecule `C=CC(C)(O)CCC=C(C)CCC=C(C)C` (stereo not shown) [nerolidol, 3,7,11-Trimethyl-1,6,10-dodecatrien-3-ol], at TRPV1 receptors, the “Calcium response (fluorescence change), non-encapsulated individual terpenoids” value is listed as “induced a calcium response”. For the molecule `C=C1CC/C=C(\C)CC[C@@H]2[C@@H]1CC2(C)C` [β-caryophyllene, (1R,4E,9S)-4,11,11-Trimethyl-8-methylidenebicyclo[7.2.0]undec-4-ene], the “Calcium response (fluorescence change), non-encapsulated individual terpenoids” value on TRPV1 receptors is “lowest calcium responses”.
